These results are taken from patent US9422240B2, “Partially saturated nitrogen-containing heterocyclic compound” (TAISHO PHARMACEUTICAL CO., LTD, priority 2012, dated 2016).

In test [1] the target is T1, human PHD2 (Homo sapiens (Human), UniProt Q9GZT9). Kind of test: Test 1: human PHD2 inhibitory activity, [14C]-2-oxoglutarate to [14C]-succinic acid radiometric assay with HIF-1α peptide. The test is classed as biochemical. The following applies: test compound's concentration 1 μM; Test 1, [14C]-2-oxoglutarate radiometric assay; read-out: Percent inhibition (% at 1 μM). A digest of the protocol: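 Lysate from HighFive insect cells expressing human PHD2 (4 μg/well) was incubated for 15 min at 37° C with a 19-residue HIF-1α peptide and [14C]-2-oxoglutarate. Unreacted 2-oxoglutarate was precipitated with DNPH and filtered off, and [14C]-succinic acid was counted. Inhibition was calculated relative to substrate-free and compound-free controls.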

Test [2] has as its target T1, human PHD2. Put plainly: Test 2: human PHD2 inhibitory activity, fluorescence polarization assay of HIF-1α peptide proline hydroxylation. The test is classed as biochemical. Particulars: test compound's concentration 1 μM; Test 2, fluorescence polarization assay; read-out: Percent inhibition (% at 1 μM). A digest of the protocol:
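Enzyme from lysate of cells expressing human PHD2 (NM_022051), 40 ng/well, added to compound and 19-residue HIF-1α peptide substrate; 20 min at 30° C., EDTA quench. Prolyl hydroxylation detected by HIF-OH antibody binding via fluorescence polarization; inhibition relative to compound-free wells.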
Background: In fluorescence polarisation assays a small probe gives low polarisation when free and higher when bound to something large.

T1 sequence (Q9GZT9 whole entry): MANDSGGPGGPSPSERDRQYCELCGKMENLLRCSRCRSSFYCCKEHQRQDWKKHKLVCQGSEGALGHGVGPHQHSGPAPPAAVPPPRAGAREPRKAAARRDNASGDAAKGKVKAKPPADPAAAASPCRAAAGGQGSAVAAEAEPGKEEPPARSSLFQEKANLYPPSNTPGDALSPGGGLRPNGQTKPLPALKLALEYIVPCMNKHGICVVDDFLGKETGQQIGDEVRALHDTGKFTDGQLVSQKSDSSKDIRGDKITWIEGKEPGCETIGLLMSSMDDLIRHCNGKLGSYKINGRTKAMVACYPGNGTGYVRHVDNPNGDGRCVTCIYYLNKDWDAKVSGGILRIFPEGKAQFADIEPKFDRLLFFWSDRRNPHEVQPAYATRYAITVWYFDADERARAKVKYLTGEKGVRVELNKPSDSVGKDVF

As a reminder, the inhibition is the drop in the measured response relative to a control, in per cent. Turning to `O=C(O)CNC(=O)C1=C(O)CC2(CCCCC2)N(Cc2ccc(C(F)(F)F)nc2)C1=O` [Ex. 1-141], the inhibition at 1 µM on human PHD2 [1] was 64%; on human PHD2 [2] it was 62%.
For `O=C(O)CNC(=O)C1=C(O)CC2(CCCCC2)N(Cc2ccc(C(F)(F)F)cn2)C1=O` [Ex. 1-142], in that order: 54% and 52%.
On the same counts, the results for `O=C(O)CNC(=O)C1=C(O)C2CCCCC2N(Cc2ccc(C(F)(F)F)cc2)C1=O` (centres unmarked) [Ex. 1-143] are 41% and 65%.
For `CC1CN(Cc2ccc(Br)cc2)C(=O)C(C(=O)NCC(=O)O)=C1O` (centres unmarked) [Ex. 1-144], in that order: 76% and 85%.
`O=C(O)CNC(=O)C1=C(O)CCN(Cc2ccc(Br)cc2F)C1=O` [Ex. 1-145]: the results for the inhibition at 1 µM at human PHD2 [1] and on human PHD2 [2] were 88% and 83%, respectively.
On to `CC(c1ccc(C(F)(F)F)cc1)N1CCC(O)=C(C(=O)NCC(=O)O)C1=O` (centres unmarked) [Ex. 1-146], for which the inhibition at 1 µM at human PHD2 [1] worked out at 69%; at human PHD2 [2] it was 70%.
For `O=C(O)CNC(=O)C1=C(O)C2(CC2)CN(Cc2ccc(C(F)(F)F)cc2)C1=O` [Ex. 1-147], in that order: 84% and 88%.
On the same counts, the results for `CC1CC(O)=C(C(=O)NCC(=O)O)C(=O)N1Cc1ccc(Br)cc1` (centres unmarked) [Ex. 1-148] are 78% and 82%.
For `CC1CC(O)=C(C(=O)NCC(=O)O)C(=O)N1Cc1ccc(OC(F)(F)F)cc1` (centres unmarked) [Ex. 1-149], in that order: 74% and 74%.
As to `CC1(C)CC(O)=C(C(=O)NCC(=O)O)C(=O)N1Cc1ccc(Br)cc1` [Ex. 1-150], the results for the inhibition at 1 µM at human PHD2 [1] and on human PHD2 [2] were 63% and 71%, respectively.
Consider `CC1(C)CC(O)=C(C(=O)NCC(=O)O)C(=O)N1Cc1ccc(OC(F)(F)F)cc1` [Ex. 1-151], for which the inhibition at 1 µM was 57% on human PHD2 [1] and 63% on human PHD2 [2].
On the same counts, the results for `O=C(O)CNC(=O)C1=C(O)CCN(Cc2ccc3c(c2)OC(F)(F)O3)C1=O` [Ex. 1-152] are 82% and 83%.
Take `CCC(c1ccc(C(F)(F)F)cc1)N1CCC(O)=C(C(=O)NCC(=O)O)C1=O` (centres unmarked) [Ex. 1-153]: the inhibition at 1 µM came to 64% on human PHD2 [1] and 63% on human PHD2 [2].
On the same counts, the results for `O=C(O)CNC(=O)C1=C(O)CC2(CCC2)N(Cc2ccc(OC(F)(F)F)cc2)C1=O` [Ex. 1-154] are 77% and 81%.
In the case of `O=C(O)CNC(=O)C1=C(O)CC2(CCC2)N(Cc2ccc(Br)cc2)C1=O` [Ex. 1-155], the inhibition at 1 µM amounted to 82% at human PHD2 [1] and 83% on human PHD2 [2].
As to `O=C(O)CNC(=O)C1=C(O)CC2(CCCC2)N(Cc2ccc(C(F)(F)F)cc2)C1=O` [Ex. 1-156], the figures for the inhibition at 1 µM on human PHD2 [1] and on human PHD2 [2] were 70% and 80%, respectively.
On the same counts, the results for `CC1(C)CC(O)=C(C(=O)NCC(=O)O)C(=O)N1Cc1ccc(Cl)cc1` [Ex. 1-157] are 67% and 73%.
On the same counts, the results for `CC1(C)CC(O)=C(C(=O)NCC(=O)O)C(=O)N1Cc1ccc(Cl)c(Cl)c1` [Ex. 1-158] are 67% and 75%.
For `O=C(O)CNC(=O)C1=C(O)CCN(Cc2ccc(OC(F)(F)F)c(Cl)c2)C1=O` [Ex. 1-159], in that order: 78% and 90%.
Regarding `O=C(O)CNC(=O)C1=C(O)CCN(Cc2ccc(Cl)c(OC(F)(F)F)c2)C1=O` [Ex. 1-160], the inhibition at 1 µM at human PHD2 [1] came to 74%; at human PHD2 [2] it was 85%.
On the same counts, the results for `CC1(C)CC(O)=C(C(=O)NCC(=O)O)C(=O)N1Cc1ccc(OC(F)F)cc1` [Ex. 1-161] are 62% and 62%.
For `CC1CN(Cc2ccc(Cl)cc2)C(=O)C(C(=O)NCC(=O)O)=C1O` (centres unmarked) [Ex. 1-162], in that order: 78% and 77%.
For `CC1CN(Cc2ccc(Cl)c(Cl)c2)C(=O)C(C(=O)NCC(=O)O)=C1O` (centres unmarked) [Ex. 1-163], in that order: 84% and 90%.
Regarding `CC1(C)CC(O)=C(C(=O)NCC(=O)O)C(=O)N1Cc1ccc(OC(F)(F)F)c(Cl)c1` [Ex. 1-164], the inhibition at 1 µM at human PHD2 [1] came out at 49%; on human PHD2 [2], 66%.
On the same counts, the results for `CC1(C)CC(O)=C(C(=O)NCC(=O)O)C(=O)N1Cc1ccc(Cl)c(OC(F)(F)F)c1` [Ex. 1-165] are 42% and 55%.
As to `O=C(O)CNC(=O)C1=C(O)CC2(CCC2)N(Cc2ccc(Cl)cc2)C1=O` [Ex. 1-166], the figures for the inhibition at 1 µM on human PHD2 [1] and at human PHD2 [2] were 82% and 86%, respectively.
On the same counts, the results for `O=C(O)CNC(=O)C1=C(O)CC2(CCC2)N(Cc2ccc(Cl)c(Cl)c2)C1=O` [Ex. 1-167] are 80% and 88%.
As to `COc1ccc(CN2C(=O)C(C(=O)NCC(=O)O)=C(O)CC2(C)C)cc1OC(F)(F)F` [Ex. 1-169], the figures for the inhibition at 1 µM on human PHD2 [1] and at human PHD2 [2] were 28% and 43%, respectively.
In the case of `Cc1cc(CN2C(=O)C(C(=O)NCC(=O)O)=C(O)CC2(C)C)cc(C)c1OC(F)F` [Ex. 1-170], the results for the inhibition at 1 µM at human PHD2 [1] and at human PHD2 [2] were 35% and 45%, respectively.
For `CC1CC(O)=C(C(=O)NCC(=O)O)C(=O)N1Cc1ccc(Cl)cc1` (centres unmarked) [Ex. 1-171], in that order: 81% and 82%.
On the same counts, the results for `CC1CC(O)=C(C(=O)NCC(=O)O)C(=O)N1Cc1ccc(Cl)c(Cl)c1` (centres unmarked) [Ex. 1-172] are 77% and 79%.
For `O=C(O)CNC(=O)C1=C(O)CCN(CCc2cccc(C(F)(F)F)c2)C1=O` [Ex. 1-173], in that order: 64% and 78%.
Consider `CC1(C)CN(Cc2ccc(C(F)(F)F)cc2)C(=O)C(C(=O)NCC(=O)O)=C1O` [Ex. 1-174], for which the inhibition at 1 µM at human PHD2 [1] was determined as 59%; at human PHD2 [2], 74%.
Consider `CC1(C)C(O)=C(C(=O)NCC(=O)O)C(=O)N(Cc2ccc(C(F)(F)F)cc2)C1(C)C` [Ex. 1-175], for which the inhibition at 1 µM was determined as 32% on human PHD2 [1] and 56% at human PHD2 [2].
For `O=C(O)CNC(=O)C1=C(O)CCN(CCc2ccc(C(F)(F)F)cc2)C1=O` [Ex. 1-176], in that order: 74% and 80%.
Regarding `CC1CC(O)=C(C(=O)NCC(=O)O)C(=O)N1Cc1ccc(-c2ccc(F)cc2)cc1` (centres unmarked) [Ex. 1-177], the inhibition at 1 µM came to 93% on human PHD2 [1] and 92% at human PHD2 [2].
In the case of `O=C(O)CNC(=O)C1=C(O)CC2(CCC2)N(Cc2ccc(-c3ccc(F)cc3)cc2)C1=O` [Ex. 1-178], the results for the inhibition at 1 µM at human PHD2 [1] and on human PHD2 [2] were 81% and 92%, respectively.
For the molecule `Cc1cc(CN2C(=O)C(C(=O)NCC(=O)O)=C(O)CC2(C)C)ccc1F` [Ex. 1-179], the inhibition at 1 µM came to 44% on human PHD2 [1] and 49% on human PHD2 [2].
On the same counts, the results for `Cc1cc(CN2C(=O)C(C(=O)NCC(=O)O)=C(O)CC2(C)C)ccc1Cl` [Ex. 1-180] are 54% and 65%.
On the same counts, the results for `O=C(O)CNC(=O)C1=C(O)CC(Cc2ccccc2)N(Cc2ccc(C(F)(F)F)cc2)C1=O` (centres unmarked) [Ex. 1-181] are 73% and 83%.
As for `CCC1CC(O)=C(C(=O)NCC(=O)O)C(=O)N1Cc1ccc(C(F)(F)F)cc1` (centres unmarked) [Ex. 1-182], the inhibition at 1 µM came to 77% at human PHD2 [1] and 71% at human PHD2 [2].
Turning to `CCC1(CC)CC(O)=C(C(=O)NCC(=O)O)C(=O)N1Cc1ccc(C(F)(F)F)cc1` [Ex. 1-183], the inhibition at 1 µM on human PHD2 [1] is 39%; at human PHD2 [2], 50%.
For `Cc1ccc(CN2C(=O)C(C(=O)NCC(=O)O)=C(O)CC2(C)C)cc1F` [Ex. 1-184], in that order: 59% and 60%.
In the case of `O=C(O)CNC(=O)C1=C(O)CC(CCc2ccccc2)N(Cc2ccc(C(F)(F)F)cc2)C1=O` (centres unmarked) [Ex. 1-185], the inhibition at 1 µM was found to be 69% on human PHD2 [1] and 81% at human PHD2 [2].
For `CC1(C)CC(O)=C(C(=O)NCC(=O)O)C(=O)N1Cc1ccc(OCCCC(F)(F)F)cc1` [Ex. 1-186], in that order: 64% and 77%.
For `Cc1cc(CN2C(=O)C(C(=O)NCC(=O)O)=C(O)CC2(C)C)ccc1OCCCC(F)(F)F` [Ex. 1-187], in that order: 47% and 74%.
For `CC1(C)CC(O)=C(C(=O)NCC(=O)O)C(=O)N1Cc1ccc(OC(CF)CF)c(Cl)c1` [Ex. 1-188], in that order: 44% and 63%.
On to `Cc1cc(CN2C(=O)C(C(=O)NCC(=O)O)=C(O)CC2(C)C)ccc1OC(CF)CF` [Ex. 1-189], for which the inhibition at 1 µM on human PHD2 [1] is 53%; at human PHD2 [2] it was 60%.
Take `O=C(O)CNC(=O)C1=C(O)CCN(Cc2ccc(C(F)(F)F)c(C3CC3)c2)C1=O` [Ex. 1-190]: the inhibition at 1 µM at human PHD2 [1] is 84%; at human PHD2 [2], 85%.
Regarding `COc1cc(CN2C(=O)C(C(=O)NCC(=O)O)=C(O)CC2(C)C)ccc1C(F)(F)F` [Ex. 1-191], the inhibition at 1 µM was 38% on human PHD2 [1] and 45% on human PHD2 [2].
For `CC1(C)CC(O)=C(C(=O)NCC(=O)O)C(=O)N1Cc1ccc(C(F)(F)F)c(OC(F)F)c1` [Ex. 1-192], the inhibition at 1 µM is 48% on human PHD2 [1] and 49% on human PHD2 [2].
Consider `COc1ccc(CN2C(=O)C(C(=O)NCC(=O)O)=C(O)CC2(C)C)c(F)c1` [Ex. 1-193], for which the values for the inhibition at 1 µM at human PHD2 [1] and on human PHD2 [2] were 67% and 57%, respectively.
